Experimental data published in patent publication US7939292B2, “Modified heparinase III and methods of sequencing therewith” (Massachusetts Institute of Technology, priority 2000, dated 2011).

Legend:
Assay type in all cases: biochemical, Flavobacterium heparinum
[1] = biological target: T1, heparinase III (Pedobacter heparinus, UniProt Q59289); test: DEPC inactivation of heparinase III (UV 232 nm activity assay)
T1 construct: compared to the native heparinase III isolated directly from Flavobacterium heparinum; purchased IBEX Technologies (Montreal, Canada), received as a gift rather than bought; host or cells: Flavobacterium heparinum (natural producer)
Method: The activity of heparinase III was measured using a UV 232 nm assay similar to those reported for heparinase I and heparinase II (Godavarti, R., Cooney, C. L., Langer, R., and Sasisekharan, R. (1996) Biochemistry 35, 6846-52; Shriver, Z., Hu, Y., and Sasisekharan, R. (1998) J. Biol. Chem. 273, 10160-67; and Lohse, D. and Linhardt, R. J. (1992) J. Biol. Chem. 267, 781-87). Briefly, the increase in absorbance at 232 nm as a function of time was monitored under saturating substrate conditions. All assays were performed with heparan sulfate at a concentration of 2 mg/ml in 50 mM sodium phosphate, pH 7.6. The temperature for enzymatic activity measurements was kept constant at 35° C.
(A) DEPC Inactivation of Heparinase III. At pH values ranging from 6.0 to 8.0, heparinase III (50 μg/mL) was incubated with DEPC in 50 mM sodium phosphate buffer at 25° C. The DEPC stock solution (6.9 M) was diluted with ethanol. […] At each pH, three reactions were run using different concentrations of DEPC, ranging from 50 μM to 2.5 mM. At fixed time intervals, 25 μL aliquots were withdrawn from the reaction mixtures for the UV 232 nm activity assay.
The kinetics of DEPC inactivation of heparinase III was determined by plotting the natural log of percent activity versus an adjusted time term (to account for the decomposition of DEPC). Briefly, this adjusted time term (t′) was calculated according to the following equation: […]
In this equation, k′ is the first order rate constant for DEPC hydrolysis and t is the measured time after addition of DEPC to the heparinase III solution. At each pH, the order of the reaction in DEPC was determined by plotting the observed rate constants of inactivation at each pH vs. log [DEPC]. The slope of this graph is n, the order of the reaction with respect to DEPC (Lundblad, R. (1995) Techniques in Protein Modification, CRC Press, Boca Raton).
Heparinase III was incubated with 0.31 (□), 0.54 (●), 0.97 (◯), 1.5 (▴), 1.9 (Δ) mM DEPC at pH 6.5 and at 25° C. (shown in inset of FIG. 1). […]

[2] = biological target: T1, heparinase III; test: Reactivation of DEPC-modified enzyme with hydroxylamine; parameters: Activity (%): concentration or dose not given beside the values
Method: (B) Reactivation of DEPC-Modified Enzyme with Hydroxylamine. Similar to what was completed with heparinase I and II (Godavarti, R., Cooney, C. L., Langer, R., and Sasisekharan, R. (1996) Biochemistry 35, 6846-52 and Shriver, Z., Hu, Y., and Sasisekharan, R. (1998) J. Biol. Chem. 273, 10160-67), heparinase III (50 μg/mL) was incubated with 0.97 mM DEPC, pH 6.5 until its enzymatic activity was reduced to 50% of its initial value. […] The reaction was incubated at room temperature for 6 hours. Aliquots were withdrawn every hour for the activity assay. The control mixture contained no DEPC but the same concentration of hydroxylamine to account for the loss of nonspecific activity. The ratio of the activity of the reaction mixture over the activity of the control was calculated to determine recovery of enzymatic activity.

[3] = biological target: T1, heparinase III; test: Quantification of histidines modified by DEPC (240 nm) with activity check
Method: (D) Quantification of the Number of Histidines Modified by DEPC. The extent of modification of an enzyme by DEPC can be determined by monitoring the formation of the N-carbethoxylhistidyl adduct at 240 nm. At time zero, 1.5 mM DEPC was added to the cuvette containing heparinase III in sodium phosphate buffer, pH 7.0. The change in absorbance at 240 nm was monitored every minute for 10 min. The number of modified residues was determined using a molar extinction coefficient of 3,200 M^−1cm^−1 (Lundblad, R. (1995) Techniques in Protein Modification, CRC Press, Boca Raton).
At time zero, 1.5 mM DEPC was added to a cuvette containing heparinase III (540 μg/mL) in sodium phosphate buffer, pH 7.0. The change in absorbance at 240 nm was monitored at time intervals for 10 min. The number of modified histidines was calculated using a ε=3200 M^−1cm^−1. At the beginning and end of the experiment, aliquots of heparinase III were withdrawn and tested for activity. Less than 5% of initial activity remained after 10 minutes incubation with DEPC.

[4] = biological target: T1, heparinase III; test: Substrate protection of heparinase III against DEPC inactivation; conditions: 2 mg/mL heparan sulfate 30 min before 1.5 mM DEPC
Method: (C) Substrate Protection of Heparinase III against DEPC Inactivation. Heparinase III (50 μg/mL) was pre-incubated with 2 mg/mL heparan sulfate in 50 mM sodium phosphate, pH 7.6 for 30 minutes prior to the addition of 1.5 mM DEPC. A control reaction with no prior incubation of substrate was also completed. The time course of inactivation for both was determined using the heparinase III activity assay.
Substrate protection of heparinase III inactivation by DEPC was also assessed (FIG. 4). Heparinase III (50 μg/mL) was incubated with 2 mg/mL heparan sulfate for 30 min. 1.5 mM DEPC was added to the reaction and time course of inactivation was completed using the heparinase III activity assay (O). A control reaction without pre-incubation with heparan sulfate was also done (□).

T1 sequence (Q59289 25-659): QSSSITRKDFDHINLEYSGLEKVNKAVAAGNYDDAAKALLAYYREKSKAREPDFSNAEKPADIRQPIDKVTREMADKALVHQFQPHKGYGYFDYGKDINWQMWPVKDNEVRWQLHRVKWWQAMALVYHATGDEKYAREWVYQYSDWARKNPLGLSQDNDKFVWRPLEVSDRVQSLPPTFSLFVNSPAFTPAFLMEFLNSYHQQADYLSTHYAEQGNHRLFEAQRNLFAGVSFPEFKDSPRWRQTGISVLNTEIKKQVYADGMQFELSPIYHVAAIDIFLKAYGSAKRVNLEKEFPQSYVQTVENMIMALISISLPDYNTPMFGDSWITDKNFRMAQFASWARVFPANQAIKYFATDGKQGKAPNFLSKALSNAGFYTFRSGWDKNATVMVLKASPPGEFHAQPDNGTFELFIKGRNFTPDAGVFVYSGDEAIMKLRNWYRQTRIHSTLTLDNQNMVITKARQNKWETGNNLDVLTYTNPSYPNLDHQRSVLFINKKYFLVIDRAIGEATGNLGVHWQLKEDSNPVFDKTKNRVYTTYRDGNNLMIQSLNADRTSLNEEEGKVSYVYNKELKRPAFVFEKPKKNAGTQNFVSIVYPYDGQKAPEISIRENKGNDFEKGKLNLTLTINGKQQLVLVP

CCOC(=O)OC(=O)OCC [DEPC, diethylpyrocarbonate]
inhibition of heparinase III [1]: inhibit in a dose-dependent fashion | kinact/KI ([1]; 0.31-1.9 mM DEPC, pH 6.5, 25° C., read-out: second-order rate constant of inactivation (converted)): 3.33 M⁻¹ s⁻¹ | order of the reaction in DEPC (slope of kinact vs. log [DEPC]) ([1]; pH 6.5): 1 | activity at 970 µM ([2]; Time 0 min after hydroxylamine, 0.97 mM DEPC, pH 6.5): 51% | Activity (%) ([2]; Time 30 min after hydroxylamine): 60% | Activity (%) ([2]; Time 60 min after hydroxylamine): 66% | Activity (%) ([2]; Time 90 min after hydroxylamine): 72% | Activity (%) ([2]; Time 180 min after hydroxylamine): 76% | Activity (%) ([2]; Time 240 min after hydroxylamine): 78% | Activity (%) ([2]; Time 360 min after hydroxylamine): 80% | reversibility of DEPC modification ([2]; incubation with 300 mM hydroxylamine): 90% | histidines modified per enzyme molecule ([3]; 1.5 mM DEPC, pH 7.0, 10 minutes): 1.8 | remaining activity at 1500 µM ([3]; after 10 minutes incubation with 1.5 mM DEPC, pH 7.0, read-out: initial activity remaining): < 5% | inactivation kinetics after preincubation with heparan sulfate [4]: lower inactivation kinetics
